Entries after “also recorded” stand apart in the source; their conditions may differ.
Columns and labels:
[1] = cited from earlier work; for brain penetrance / BBB permeability: in words
HDAC6 = HDAC6 (Mus musculus (Mouse), UniProt Q9Z2V5); experiment: HDAC6 inhibition in hypothalamus and other brain regions (Ac-tubulin); parameters: species or system mice; conditions: in vivo
DIO mice [2] = experiment: Chronic treatment of DIO mice (body weight, food intake, leptin, DEXA); type: in vivo; conditions: for body weight effect of chronic treatment: DIO mice, 3 weeks i.p., bavarostat 10, citarinostat 25, ricolinostat 50 mg/kg; for food intake and total body fat mass: high fat diet induced mice, summary
Experimental: DIO mice were treated with ACY775 (10 mg/kg/day, i.p.) for 3 weeks. Daily body weight (g) of DIO mice treated with vehicle (n=17) or ACY775 (n=17) during 3 weeks of treatment was determined. Daily food intake (g) during 3 weeks of vehicle or ACY775 treatment was assessed. 24 hours' food intake per mouse during the first week of vehicle or ACY775 treatment was determined. Serum leptin (ng/ml) levels after 3 weeks of vehicle (n=24) or ACY775 (n=24) treatment was assessed. Lean mass (g), fat mass (g) and fat percentage (%) after 3 weeks of vehicle (n=17) or ACY775 (n=17) treatment measured by Dual-energy X-ray absorptiometry (DEXA) scan. DEXA scans were performed in two different cohorts. Glucose tolerance test (GTT) after 1 week of vehicle (n=33) or ACY775 (n=26) treated DIO mice was assessed. Area of curve (AOC) analysis for GTT was performed. Blood glucose (mg/dl) levels after 1 week of vehicle (n=17) or ACY775 (n=16) were assessed in treated DIO mice. Insulin tolerance test (ITT) was performed after 2 weeks of vehicle (n=31) or ACY775 (n=21) treatment of DIO mice. Serum insulin (ng/ml) levels were measured after 3 weeks of vehicle (n=22) or ACY775 (n=21) in treated DIO mice. A homeostatic model assessment of insulin resistance (HOMA-IR) was analyzed after 3 weeks of vehicle (n=14) or ACY775 (n=13) treated DIO mice.
Food intake was analyzed hourly until 3:00 am. […] DEXA scans were performed in two different cohorts.
DIO mice then were treated with ricolinostat (50 mg/kg, i.p.) for 3 weeks. Daily body weight (g), daily food intake (g), serum leptin (ng/ml) levels after 3 weeks of vehicle (n=8) or ricolinostat (n=8) treatment, lean mass (g); fat mass and fat percentage (%) after 3 weeks of vehicle (n=16) or ricolinostat (n=17) treatment measured by DEXA scan were determined.
Studies were conducted as described above with reference to ACY775.
DIO mice then were treated with bavarostat (10 mg/kg, i.p.) for 3 weeks and daily body weight (g) of DIO mice treated with Veh (n=9) or bavarostat (n=9) measured during the three weeks of treatment period. Daily food intake (g) during 3 weeks of Veh or bavarostat treatment was also measured.
ACY1083 was administered to DIO mice as described in Example 3.

[3] = Brain/plasma ratio, brain and hypothalamus penetrance; type: in vivo; conditions: in words
[4] = 5 mg/kg i.p.; cited from earlier work
HDAC6 KO mice = experiment: 3-week treatment of DIO WT versus HDAC6 KO mice; type: in vivo; conditions: for body weight, HDAC6 KO vs WT DIO mice: 3 weeks i.p., ACY775 10, ACY738 50, Tubastatin A 25 mg/kg/day
diet-induced obese mice = conditions: cited from earlier work
HDAC6 in AgRP neurons = experiment: DIO mice with HDAC6 deleted in AgRP neurons (HDAC6^Agrp-Δ); type: in vivo; conditions: chronic treatment
Experimental: Design, validation, and stereotaxic injection of AAV viral vector carrying the guide RNAs targeting the mouse HDAC6 genomic locus. Three designed sgRNAs were concatenated and constructed into an AAV vector carrying a cre-enabled mCherry fluorescent marker.
Following the bilateral injection of AAV-sgHDAC6 into the arcuate nucleus of Agrp-ires-cre::LSL-Cas9-GFP (Agrp-Cre^+/−::Cas9^+/−) or control LSL-Cas9-GFP (Cas9^+/−) mice, immunostaining to detect the expression of mCherry and GFP was performed. AAV-sg-HDAC6 injected Agrp-Cre^+/−::Cas9^+/− (HDAC6^Agrp-Δ) and Cas9^+/− (HDAC6^WT) DIO mice (n=7 for each group) were fasted for 24 hours, and injected with ACY775 (10 mg/kg. i.p). Hourly total dark cycle food intake (g) (n=7 for each group) of these mice after ACY775 injection was measured. Body weight of AAV-sg-HDAC6 injected HDAC6^Agrp-Δ (n=11) and HDAC6^WT (n=6) mice were measured during 3 weeks of ACY775 (10 mg/kg/day, i.p.) treatment. Daily average food intake of HDAC6^Agro-Δ (n=11) and HDAC6^WT (n=6) mice was measured during 3 weeks of ACY775 (10 mg/kg/day, i.p.) treatment. 24-hour food intake average of HDAC Agrp- and HDAC6^WT mice during the 3 weeks of ACY775 treatment was assessed. Serum leptin level (ng/ml) of HDAC6^Agrp-Δ and HDAC6^WT mice after 2 weeks of ACY775 treatment (n=13 for HDAC6^WT and n=18 for HDAC6^Agrp-Δ) was measured. Lean mass (g); fat mass; and fat percentage (%) of HDAC Agrp- and HDAC6^WT DIO mice after 3 weeks of ACY775 treatment was measured by DEXA scan. The HDAC6 inhibitor responsive neurons in the dorsomedial hypothalamus (DMH) were assessed. Immunostaining and quantification of c-Fos expression was performed in the DMH of DIO mice following one-time ACY775 treatment (10 mg/kg, i.p.).

DIO mice [5] = experiment: Acute leptin co-treatment in DIO mice (body weight, food intake 15 h); type: in vivo; conditions: leptin 1 mg/kg i.p.
Experimental: DIO mice were pretreated with ACY775 (10 mg/kg/day, i.p.) or vehicle for 3 days, which was followed by co-treatment with ACY775 (or vehicle) and leptin (1 mg/kg, i.p.) (or saline) (n=9 for each group), % change in body weight 15 h after leptin treatment, food intake (g) during the 15 h period after leptin treatment. The results in were reproduced in two independent experiments.
Diet induced obese (DIO) mice were pretreated with ACY775 (10 mg/kg/day, i.p.) or vehicle for 3 days, which was followed by co-treatment with ACY775 (or vehicle) and leptin (1 mg/kg, i.p.) (or saline) (n=9 for each group). Mice were evaluated for % change in body weight 15 h after leptin treatment, and food intake (g) during the 15 h period after leptin treatment.
DIO mice were pretreated with ricolinostat (25 mg/kg/day, i.p.) or vehicle for 3 days, which was followed by co-treatment with ricolinostat (or vehicle) and leptin (1 mg/kg, i.p.) (or saline) (n=32 for each group). Change in body weight 15 h after leptin treatment, and food intake (g) during the 15 h period after leptin treatment were determined. The results were reproduced in two independent experiments.

[6] = tested on: STAT3^Tyr705 phosphorylation; experiment: Leptin-stimulated hypothalamic STAT3 phosphorylation in DIO mice; type: in vivo; conditions: leptin 1 mg/kg i.p.
Experimental: DIO mice were pretreated with ACY775 (10 mg/kg/day, i.p.) or vehicle for 3 days, which was followed by a last injection of ACY775 (or vehicle) in the morning of fourth day. 6 hours later mice were injected with saline or leptin (1 mg/kg, i.p.) and hypothalamus were extracted after 45 minutes following the leptin injection. Representative immunoblots for STAT3^Tyr705 phosphorylation and total STAT3 from the hypothalamus. Quantification of the ratio of p-STAT3^Tyr705 to total-STAT3 signal in the immunoblots. The results were reproduced in three independent experiments. The results were analyzed hourly.
DIO mice were pretreated with ACY775 (10 mg/kg/day, i.p.) or vehicle for 3 days, which was followed by a last injection of ACY775 (or vehicle) in the morning of fourth day. 6 hours later mice were injected with saline or leptin (1 mg/kg, i.p.) and the hypothalamus were extracted after 45 minutes following the leptin injection.
6 hours later mice were injected with saline or leptin (1 mg/kg, i.p.) and hypothalamus were extracted after 45 minutes following the leptin injection. Immunoblots for STAT3^Tyr705 phosphorylation and total STAT3 from the hypothalamus were made to quantify the ratio of p-STAT3^Tyr705 to total-STAT3 signal in the immunoblots. The results were reproduced in two independent experiments.
DIO mice were pretreated with ricolinostat (50 mg/kg/day, i.p.) or vehicle 3 days, which was followed by a last injection of ricolinostat (or vehicle) in the morning of fourth day. 6 hours later mice were injected with saline or leptin (1 mg/kg, i.p.) and the hypothalamus were extracted after 45 minutes following the leptin injection. Immunoblots were performed for STAT3^Tyr705 phosphorylation and total STAT3 from the hypothalamus. The ratio of p-STAT3^Tyr705 to total STAT3 signal in the immunoblots was quantified.

Chain of HDAC6 (Q9Z2V5 whole entry): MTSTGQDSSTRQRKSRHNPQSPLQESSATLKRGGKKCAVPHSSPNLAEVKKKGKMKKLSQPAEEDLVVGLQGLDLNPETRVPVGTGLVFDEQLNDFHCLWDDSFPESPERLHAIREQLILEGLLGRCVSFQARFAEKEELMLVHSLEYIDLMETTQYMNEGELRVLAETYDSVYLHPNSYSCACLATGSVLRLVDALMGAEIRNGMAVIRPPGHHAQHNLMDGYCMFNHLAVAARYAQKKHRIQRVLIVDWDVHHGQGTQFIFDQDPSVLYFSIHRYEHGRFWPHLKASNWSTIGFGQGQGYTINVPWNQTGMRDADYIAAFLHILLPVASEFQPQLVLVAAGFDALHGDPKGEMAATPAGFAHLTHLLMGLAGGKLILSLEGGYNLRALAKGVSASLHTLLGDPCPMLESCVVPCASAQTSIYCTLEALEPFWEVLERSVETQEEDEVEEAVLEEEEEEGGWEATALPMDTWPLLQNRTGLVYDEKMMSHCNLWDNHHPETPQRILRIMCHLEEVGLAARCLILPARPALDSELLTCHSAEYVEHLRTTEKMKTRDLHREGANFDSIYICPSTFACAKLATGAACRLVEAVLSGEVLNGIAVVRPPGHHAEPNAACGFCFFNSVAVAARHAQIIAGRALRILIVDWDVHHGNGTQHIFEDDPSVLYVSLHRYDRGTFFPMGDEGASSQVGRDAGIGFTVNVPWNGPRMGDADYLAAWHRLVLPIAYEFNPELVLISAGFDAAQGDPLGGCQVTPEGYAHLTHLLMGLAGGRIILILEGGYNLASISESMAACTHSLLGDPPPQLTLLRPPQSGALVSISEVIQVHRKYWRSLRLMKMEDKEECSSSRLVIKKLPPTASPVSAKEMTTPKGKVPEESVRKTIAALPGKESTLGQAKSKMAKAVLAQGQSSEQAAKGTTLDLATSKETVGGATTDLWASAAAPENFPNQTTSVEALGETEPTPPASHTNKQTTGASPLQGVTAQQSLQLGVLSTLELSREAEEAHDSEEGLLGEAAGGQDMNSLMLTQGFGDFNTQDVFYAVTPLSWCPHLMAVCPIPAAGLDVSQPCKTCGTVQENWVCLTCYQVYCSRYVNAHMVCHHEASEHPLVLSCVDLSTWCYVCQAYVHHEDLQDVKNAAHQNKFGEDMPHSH

CC1CCC(C(C)(C2CCC(C)CC2)C2CCC(C(C)C(C)CCCCC(C)C(C)C)CC2)CC1 (stereo not shown) [ACY257]
AUC Brain/AUC Plasma Ratio ([1]; in vivo): 0.01 | brain penetrance / BBB permeability [1]: limited brain expression | HDAC6 inhibition in other brain regions (cerebrum, frontal lobe, temporal lobe, brainstem) (HDAC6): does not inhibit HDAC6 in other brain regions | HDAC6 inhibition in the hypothalamus (HDAC6): inhibits HDAC6 in the hypothalamus | body weight effect of chronic treatment (DIO mice [2]): as effective as ACY775 in reducing body weight; also recorded: Significant weight loss; also recorded: as effective as ACY775 in lowering body weight | body weight effect of chronic treatment (DIO mice [2]; listed as ACY 257): greatly reduces body weight | food intake and total body fat mass (DIO mice [2]): significant reduction of food intake and total body fat mass | penetrance into the hypothalamus [3]: high penetrance into the arctuate nucleus of the hypothalamus | Cmax [4]: 1047 ng/mL | Plasma AUClast [4]: 871 (5 mg/kg i.p.) hr*ng/ml | T1/2 [4]: 8.15 h

CN(Cc1ccc(C(=O)NO)cc1F)CC12CC3CC(CC(C3)C1)C2 [Bavarostat, 4-(((((3r,5r,7r)-adamantan-1-yl)methyl)(methyl)amino)methyl)-3-fluoro-N-hydroxybenzamide]
brain penetrance / BBB permeability [1]: high brain penetrance | body weight, HDAC6 KO vs WT DIO mice (HDAC6 KO mice): treatment of wild type mice but not HDAC6 Knockout animals with bavarostat caused weight loss | body weight effect of chronic treatment (DIO mice [2]): Significant weight loss; also recorded: statistically significantly effective in reducing food intake and body weight | food intake and total body fat mass (DIO mice [2]): significant reduction of food intake and total body fat mass | penetrance into the hypothalamus [3]: high penetrance of the hypothalamus

O=C(CCCCCCNC(=O)c1cnc(N(c2ccccc2)c2ccccc2Cl)nc1)NO [Citarinostat]
brain penetrance / BBB permeability [1]: good brain penetrance | HDAC6 inhibition in other brain regions (cerebrum, frontal lobe, temporal lobe, brainstem) (HDAC6): inhibits HDAC6 in other brain regions | HDAC6 inhibition in the hypothalamus (HDAC6): not in the hypothalamus | HDAC6 inhibition in the hypothalamus (HDAC6; listed as citarinostat): does not show HDAC6 inhibition in the AGP neurons in the hypothalamus | body weight effect of chronic treatment (DIO mice [2]): not effective in reducing body weight | body weight effect of chronic treatment (DIO mice [2]; listed as citarinostat): ineffective weight lowering effect

CN1CCc2c(c3ccccc3n2Cc2ccc(C(=O)NO)cc2)C1 [Tubastatin A]
brain/plasma ratio ([1]; in vivo): 0.18 | brain penetrance / BBB permeability [1]: extremely low | body weight, HDAC6 KO vs WT DIO mice (HDAC6 KO mice): reduced the body weight of the HDAC6 KO mice the same as the wt mice | fat mass and fat %, HDAC6 KO vs WT (HDAC6 KO mice; DEXA): significantly lower in both wt and HDAC6 KO groups | lean mass, HDAC6 KO vs WT (HDAC6 KO mice; DEXA): not different | blood glucose, serum insulin and leptin levels, HDAC6 KO vs WT (HDAC6 KO mice; mouse, in vivo): reduced equally in the wt and HDAC6 KO group | food intake, HDAC6 KO vs WT DIO mice (HDAC6 KO mice; mouse, in vivo): reduced similarly | glucose tolerance and insulin sensitivity (GTT, ITT), HDAC6 KO vs WT (HDAC6 KO mice; mouse, in vivo): improved glucose tolerance and increased insulin sensitivity in both wt and the HDAC6 KO mice | HDAC6 inhibition in the hypothalamus (HDAC6): nor show HDAC6 inhibition in the hypothalamus | penetrance into the hypothalamus [3]: neither of which have high penetrance into the hypothalamus | anti-obesity effects reported by Cakir et al. (diet-induced obese mice): reduce food intake, fat mass, hepatic steatosis and improve systemic glucose homeostasis; also recorded: attenuated in animals with a defective central leptin-melanocortin circuitry | anti-obesity effects in HDAC6^Agrp-Δ vs HDAC6^WT DIO mice (HDAC6 in AgRP neurons): did not change Tubastatin A's effects on suppressing feeding or body weight

leptin: peptide hormone, product of the obese (ob) gene
body weight, leptin alone (DIO mice [5]): did not significantly alter their bodyweight; also recorded: did not change their bodyweight | food intake, leptin alone (DIO mice [5]): did not significantly change the food intake | hypothalamic STAT3^Tyr705 phosphorylation, leptin in vehicle-treated mice [6]: did not significantly increase STAT3^Tyr705 phosphorylation
